In ChEMBL document CHEMBL3045169, “In vitro evaluation of the antibacterial and antifungal activity of some new pyrazolyl-quinazolin-4(3H)-one derivatives” (2012) one finds zone of inhibition and Activity data, which are given here for ten molecules.

What all share (assay type): functional
Assay [1] concerns Candida albicans. The experiment in a line: Antifungal activity against Candida albicans ATCC 10231 at 20 ug/ml by agar cup-plate method. To be noted: read-out: IZ.
The subject of assay [2] is Staphylococcus aureus. In words: Antibacterial activity against Staphylococcus aureus ATCC 9144 by agar cup-plate method relative to penicillin-G. The arrangement: concentration or dose not given beside the values.
Assay [3] deals with Aspergillus niger. The experiment in a line: Antifungal activity against Aspergillus niger ATCC 6275 at 20 ug/ml by agar cup-plate method. To be noted: read-out: IZ.
Assay [4] concerns Escherichia coli. In words: Antibacterial activity against Escherichia coli ATCC 25922 by agar cup-plate method relative to penicillin-G. The arrangement: concentration or dose not given beside the values.
Assay [5] concerns Pseudomonas aeruginosa. In words: Antibacterial activity against Pseudomonas aeruginosa ATCC 9027 at 50 ug/ml by agar cup-plate method. Particulars: read-out: IZ.
The test system of assay [6] is Pseudomonas aeruginosa. The experiment in a line: Antibacterial activity against Pseudomonas aeruginosa ATCC 9027 by agar cup-plate method relative to penicillin-G. The arrangement: concentration or dose not given beside the values.
Assay [7] deals with Candida albicans. The experiment in a line: Antifungal activity against Candida albicans ATCC 10231 by agar cup-plate method relative to fluconazole. The arrangement: concentration or dose not given beside the values.
The subject of assay [8] is Aspergillus niger. The experiment in a line: Antifungal activity against Aspergillus niger ATCC 6275 by agar cup-plate method relative to fluconazole. The arrangement: concentration or dose not given beside the values.
Assay [9] has as its system Candida albicans. The experiment in a line: Antifungal activity against Candida albicans ATCC 10231 at 10 ug/ml by agar cup-plate method. Particulars: read-out: IZ.
The test system of assay [10] is Pseudomonas aeruginosa. In words: Antibacterial activity against Pseudomonas aeruginosa ATCC 9027 at 100 ug/ml by agar cup-plate method. Particulars: read-out: IZ.
The subject of assay [11] is Bacillus subtilis. In words: Antibacterial activity against Bacillus subtilis ATCC 6633 by agar cup plate method relative to penicillin-G. The arrangement: concentration or dose not given beside the values.
The test system of assay [12] is Staphylococcus aureus. The experiment in a line: Antibacterial activity against Staphylococcus aureus ATCC 9144 at 50 ug/ml by agar cup-plate method. To be noted: read-out: IZ.
The test system of assay [13] is Escherichia coli. The experiment in a line: Antibacterial activity against Escherichia coli ATCC 25922 at 100 ug/ml by agar cup-plate method. To be noted: read-out: IZ.
Assay [14] has as its system Bacillus subtilis. In words: Antibacterial activity against Bacillus subtilis ATCC 6633 at 100 ug/ml by agar cup plate method. To be noted: read-out: IZ.
The subject of assay [15] is Staphylococcus aureus. The experiment in a line: Antibacterial activity against Staphylococcus aureus ATCC 9144 at 100 ug/ml by agar cup-plate method. To be noted: read-out: IZ.
Assay [16] has as its system Aspergillus niger. The experiment in a line: Antifungal activity against Aspergillus niger ATCC 6275 at 10 ug/ml by agar cup-plate method. To be noted: read-out: IZ.
In assay [17] the test system is Bacillus subtilis. In words: Antibacterial activity against Bacillus subtilis ATCC 6633 at 50 ug/ml by agar cup plate method. Particulars: read-out: IZ.
Assay [18] relates to Escherichia coli. In words: Antibacterial activity against Escherichia coli ATCC 25922 at 50 ug/ml by agar cup-plate method. Particulars: read-out: IZ.

Turning to `O=c1c2cc(I)ccc2nc(Cc2ccccc2Nc2ccccc2)n1NC1=NNC(c2cccc(Cl)c2)C1` (stereo unspecified), the values for the zone of inhibition at 20 µg/mL in [1] and in assay [3] were 16 mm and 15 mm, respectively. The Activity in assay [2] is 44.39%; in assay [4] it was 40.81%; in assay [6], 44.72%; in assay [7] it was 59.53%; in [8] it was 53.99%; in assay [11], 41.49%. Also, the zone of inhibition at 50 µg/mL in assay [5], in assay [12], in assay [17] and in assay [18] was 0 mm throughout. In addition, the zone of inhibition at 10 µg/mL in assay [9] turned out to be 14 mm; in assay [16] it was 12 mm. For the same molecule, the zone of inhibition at 100 µg/mL in assay [10], in assay [13], in [14] and in [15] was 6 mm each time.

Regarding `O=c1c2cc(I)ccc2nc(Cc2ccccc2Nc2ccccc2)n1NC1=NNC(c2ccc(Cl)cc2)C1` (stereo unspecified), the zone of inhibition at 20 µg/mL stood at 18 mm in assay [1] and 17 mm in assay [3]. Moreover, the Activity worked out at 44.39% in [2]; 40.81% in assay [4]; 48.61% in [6]; 67.26% in [7]; 58.12% in [8]; 41.49% in assay [11]. Further, the zone of inhibition at 50 µg/mL in assay [5], in [12], in assay [17] and in assay [18] was 0 mm each time. The zone of inhibition at 10 µg/mL in assay [9] amounted to 16 mm; in assay [16], 15 mm. The zone of inhibition at 100 µg/mL in [10] came to 7 mm; in assay [13], 6 mm; in assay [14] it was 6 mm; in assay [15], 6 mm.

As to `O=c1c2cc(I)ccc2nc(Cc2ccccc2Nc2ccccc2)n1NC1=NNC(c2ccccc2[N+](=O)[O-])C1` (stereo unspecified), the figures for the zone of inhibition at 20 µg/mL in [1] and in assay [3] were 18 mm and 17 mm, respectively. The Activity in assay [2] amounted to 55.29%; in assay [4] it was 47.67%; in assay [6] it was 55.43%; in assay [7], 68.81%; in assay [8] it was 58.12%; in assay [11], 63.61%. Besides, the zone of inhibition at 50 µg/mL in assay [5] worked out at 12 mm; in assay [12] it was 13 mm; in assay [17], 13 mm; in assay [18] it was 11 mm. The zone of inhibition at 10 µg/mL in assay [9] and in assay [16] was 15 mm each time. Also, the zone of inhibition at 100 µg/mL in [10] came out at 15 mm; in assay [13], 14 mm; in assay [14], 17 mm; in assay [15] it was 16 mm.

For the molecule `O=c1c2cc(I)ccc2nc(Cc2ccccc2Nc2ccccc2)n1NC1=NNC(c2cccc([N+](=O)[O-])c2)C1` (stereo unspecified), the zone of inhibition at 20 µg/mL in assay [1] was 15 mm; in assay [3], 14 mm. Moreover, the Activity was 52.83% in [2]; 62.3% in [4]; 67.47% in assay [6]; 56.01% in assay [7]; 51.18% in assay [8]; 52.61% in assay [11]. Moreover, the zone of inhibition at 50 µg/mL turned out to be 16 mm in assay [5], 12 mm in assay [12], 11 mm in assay [17] and 15 mm in [18]. Also, the results for the zone of inhibition at 10 µg/mL in assay [9] and in assay [16] were 13 mm and 11 mm, respectively. The zone of inhibition at 100 µg/mL was 19 mm in assay [10], 19 mm in assay [13], 14 mm in assay [14] and 15 mm in assay [15].

Regarding `O=c1c2cc(I)ccc2nc(Cc2ccccc2Nc2ccccc2)n1NC1=NNC(c2ccc([N+](=O)[O-])cc2)C1` (stereo unspecified), the zone of inhibition at 20 µg/mL in assay [1] amounted to 16 mm; in assay [3] it was 15 mm. Besides, the Activity in assay [2] is given as 55.57%; in assay [4] it was 54.75%; in assay [6], 61.15%; in assay [7] it was 59.53%; in [8], 51.52%; in [11], 58.83%. In addition, the zone of inhibition at 50 µg/mL in assay [5] was found to be 14 mm; in assay [12], 11 mm; in [17], 13 mm; in assay [18], 12 mm. Also, the zone of inhibition at 10 µg/mL was determined as 14 mm in assay [9] and 13 mm in assay [16]. For the same molecule, the zone of inhibition at 100 µg/mL in assay [10] was determined as 17 mm; in [13] it was 16 mm; in assay [14], 16 mm; in assay [15], 15 mm.

Take `COc1ccccc1C1CC(Nn2c(Cc3ccccc3Nc3ccccc3)nc3ccc(I)cc3c2=O)=NN1` (stereo unspecified): the zone of inhibition at 20 µg/mL in assay [1] and in assay [3] was 6 mm each time. For the same molecule, the Activity was determined as 36.21% in [2]; 52.45% in assay [4]; 63.19% in [6]; 45.11% in assay [7]; 41.3% in assay [8]; 38.97% in assay [11]. Moreover, the zone of inhibition at 50 µg/mL in assay [5] was determined as 13 mm; in assay [12], 7 mm; in [17], 8 mm; in assay [18] it was 13 mm. Further, the zone of inhibition at 10 µg/mL in assay [9] and in [16] was 0 mm throughout. Further, the zone of inhibition at 100 µg/mL in [10] stood at 17 mm; in assay [13], 16 mm; in assay [14], 10 mm; in assay [15], 9 mm.

`COc1ccc(C2CC(Nn3c(Cc4ccccc4Nc4ccccc4)nc4ccc(I)cc4c3=O)=NN2)cc1` (stereo unspecified): the zone of inhibition at 20 µg/mL in assay [1] and in assay [3] was 7 mm each time. For the same molecule, the Activity in assay [2] is listed as 38.15%; in assay [4], 57.71%; in assay [6], 68.97%; in assay [7], 49.07%; in assay [8], 45.04%; in assay [11], 41.49%. Moreover, the zone of inhibition at 50 µg/mL in assay [5] was determined as 15 mm; in assay [12] it was 8 mm; in [17] it was 9 mm; in assay [18], 15 mm. Further, the zone of inhibition at 10 µg/mL in assay [9] and in assay [16] was 0 mm each time. Also, the zone of inhibition at 100 µg/mL in assay [10] amounted to 19 mm; in assay [13], 18 mm; in assay [14] it was 11 mm; in [15], 10 mm.

`CN(C)c1ccc(C2CC(Nn3c(Cc4ccccc4Nc4ccccc4)nc4ccc(I)cc4c3=O)=NN2)cc1` (stereo unspecified): the zone of inhibition at 20 µg/mL came to 18 mm in assay [1] and 17 mm in assay [3]. The Activity worked out at 48.23% in [2]; 40.81% in [4]; 48.61% in assay [6]; 68.81% in [7]; 60.1% in [8]; 45.27% in assay [11]. The zone of inhibition at 50 µg/mL in [5], in [12], in assay [17] and in assay [18] was 0 mm each time. Further, the zone of inhibition at 10 µg/mL in [9] worked out at 15 mm; in assay [16], 14 mm. For the same molecule, the zone of inhibition at 100 µg/mL worked out at 7 mm in assay [10], 6 mm in assay [13], 7 mm in [14] and 7 mm in [15].

On to `OC(Cn1cncn1)(Cn1cncn1)c1ccc(F)cc1F` [FLUCONAZOLE], for which the zone of inhibition at 20 µg/mL worked out at 26 mm in assay [1] and 28 mm in assay [3]. In addition, the zone of inhibition at 10 µg/mL in [9] stood at 21 mm; in [16], 22 mm.

Turning to `CC1(C)S[C@@H]2[C@H](NC(=O)Cc3ccccc3)C(=O)N2[C@H]1C(=O)O` [PENICILLIN G], the zone of inhibition at 50 µg/mL in [5] was 23 mm; in [12] it was 25 mm; in [17], 21 mm; in assay [18] it was 25 mm. Besides, the zone of inhibition at 100 µg/mL came to 28 mm in assay [10], 31 mm in assay [13], 27 mm in assay [14] and 30 mm in assay [15].
